Measurements as given in ChEMBL document CHEMBL2062419, “Synthesis and antiviral activities of hexadecyloxypropyl prodrugs of acyclic nucleoside phosphonates containing guanine or hypoxanthine and a (S)-HPMP or PEE acyclic moiety” (Eur J Med Chem, 2012).
Activity calls are given as the source filed them. The calls are words filed in the database; no cut-off is given here.

Legend:
[1] = system: Human alphaherpesvirus 3; assay: Antiviral activity against thymidine kinase positive VZV OKa infected in HEL cells by plaque formation assay; type: functional, cell-based, Human herpesvirus 3 strain Oka vaccine; conditions: Human alphaherpesvirus 3, OKa
[2] = system: Human alphaherpesvirus 3; assay: Antiviral activity against thymidine kinase negative VZV 07/01 infected in HEL cells by plaque formation assay; type: functional, organism-based; conditions: Human alphaherpesvirus 3, 07/01, HEL
[3] = system: Human alphaherpesvirus 1; assay: Antiviral activity against HSV1 KOS infected in HEL cells by viral CPE assay; type: functional, organism-based; conditions: Human alphaherpesvirus 1, KOS
[4] = system: Human alphaherpesvirus 2; assay: Antiviral activity against HSV2 G infected in HEL cells by viral CPE assay; type: functional, organism-based; conditions: Human alphaherpesvirus 2, strain G
[5] = system: Human alphaherpesvirus 1; assay: Antiviral activity against thymidine kinase negative and ACV resistant HSV1 KOS infected in HEL cells by viral CPE assay; type: functional, organism-based; conditions: Human alphaherpesvirus 1, KOS
[6] = system: Human betaherpesvirus 5; assay: Antiviral activity against HCMV AD169 infected in HEL cells by viral CPE assay; type: functional, organism-based; conditions: Human betaherpesvirus 5, AD169, HEL
[7] = system: Human betaherpesvirus 5; assay: Antiviral activity against HCMV Davis infected in HEL cells by viral CPE assay; type: functional, organism-based; conditions: Human betaherpesvirus 5, Davis
[8] = system: Felid alphaherpesvirus 1; assay: Antiviral activity against Feline herpesvirus infected in CRFK cells by viral CPE assay; type: functional, organism-based; conditions: Felid alphaherpesvirus 1, CRFK
[9] = system: Vaccinia virus; assay: Antiviral activity against Vaccinia virus Lederie infected in HEL cells by viral CPE assay; type: functional, organism-based; conditions: Orthopoxvirus vaccinia
[10] = Cytotoxicity against HEL cells assessed as effect on cell morphology incubated for 3 days by microscopy; type: cell-based; conditions: human
[11] = system: HEL; assay: Cytotoxicity against HEL cells assessed as effect on cell growth incubated for 3 days by Coulter counter assay; type: cell-based; conditions: human, 72 h
[12] = Selectivity index, ratio of cytotoxic CC50 for HEL cells to EC50 for VZV 07/01
[13] = Selectivity index, ratio of cytotoxic CC50 for HEL cells to EC50 for VZV Oka
[14] = Selectivity index, ratio of cytotoxic CC50 for HEL cells to EC50 for HSV1 KOS
[15] = Selectivity index, ratio of cytotoxic CC50 for HEL cells to EC50 for HSV2 G
[16] = Selectivity index, ratio of cytotoxic CC50 for HEL cells to EC50 for ACV resistant HSV1 KOS
[17] = Selectivity index, ratio of cytotoxic CC50 for HEL cells to EC50 for HCMV AD169
[18] = Selectivity index, ratio of cytotoxic CC50 for HEL cells to EC50 for HCMV Davis
[19] = Selectivity index, ratio of cytotoxic CC50 for HEL cells to EC50 for Feline herpesvirus; type: toxicity, cell-based; conditions: human, read-out: Ratio CC50/EC50
[20] = Selectivity index, ratio of cytotoxic CC50 for HEL cells to EC50 for Vaccinia virus Lederie; type: toxicity, cell-based; conditions: human, read-out: Ratio CC50/EC50
[21] = system: Human alphaherpesvirus 3; assay: Antiviral activity against thymidine kinase positive VZV YS infected in HEL cells by plaque formation assay; type: functional, organism-based; conditions: Human alphaherpesvirus 3, YS
[22] = system: Human alphaherpesvirus 3; assay: Antiviral activity against thymidine kinase negative VZV YS/R infected in HEL cells by plaque formation assay; type: functional, organism-based; conditions: Human alphaherpesvirus 3, YS/R
[23] = system: Human immunodeficiency virus 1; assay: Antiviral activity against HIV1 3B infected in human CEM cells assessed as reduction in virus-induced CEM giant cell formation incubated for 4 days at 37 degC by microscopy; type: functional, organism-based; conditions: CCRF-CEM
[24] = system: Human immunodeficiency virus 2; assay: Antiviral activity against HIV2 ROD infected in human CEM cells assessed as reduction in virus-induced CEM giant cell formation incubated for 4 days at 37 degC by microscopy; type: functional, organism-based; conditions: ISOLATE ROD, CCRF-CEM
[25] = system: Vesicular stomatitis virus; assay: Antiviral activity against VSV by viral CPE assay; type: functional, organism-based
[26] = system: Coxsackievirus B4; assay: Antiviral activity against Human coxsackievirus B4 by viral CPE assay; type: functional, organism-based
[27] = system: Respiratory syncytial virus; assay: Antiviral activity against Respiratory syncytial virus Long by viral CPE assay; type: functional, organism-based
[28] = system: Human respirovirus 3; assay: Antiviral activity against Human parainfluenza virus 3 by viral CPE assay; type: functional, organism-based
[29] = system: Mammalian orthoreovirus 1; assay: Antiviral activity against Reovirus 1 by viral CPE assay; type: functional, organism-based
[30] = system: Sindbis virus; assay: Antiviral activity against Sindbis virus by viral CPE assay; type: functional, organism-based
[31] = system: Punta Toro virus; assay: Antiviral activity against Punta Toro virus by viral CPE assay; type: functional, organism-based

| SMILES | EC50 [1] | EC50 [2] | EC50 [3] | EC50 [4] | EC50 [5] | EC50 [6] | EC50 [7] | EC50 [8] | EC50 [9] | MCC at 72 h [10] | CC50 [11] | Activity [23] | Activity [24] | Activity [25] | Activity [26] | Activity [27] | Activity [28] | Activity [29] | Activity [30] | Activity [31] | also measured |
| --- | --- | --- | --- | --- | --- | --- | --- | --- | --- | --- | --- | --- | --- | --- | --- | --- | --- | --- | --- | --- | --- |
| Nc1nc2c(ncn2C[C@H]2COP(=O)(O)CO2)c(=O)[nH]1 | 0.1 µM | 0.23 µM | 0.66 µM | 0.66 µM | 0.5 µM | 1.5 µM | 1.6 µM | 0.9 µM | 1 µM | > 100 µM | 17 µM |  |  |  |  |  |  |  |  |  | Ratio CC50/EC50 [12]: 74; Ratio CC50/EC50 [13]: 170; Ratio CC50/EC50 [14]: 26; Ratio CC50/EC50 [15]: 26; Ratio CC50/EC50 [16]: 34; Ratio CC50/EC50 [17]: 11; Ratio CC50/EC50 [18]: 11; selectivity ratio [19]: 96; selectivity ratio [20]: 17 |
| O=c1[nH]c(=O)n([C@H]2C[C@H](O)[C@@H](CO)O2)cc1/C=C/Br [BRIVUDINE] |  | 53 µM | 0.038 µM | 105 µM | ≥ 183 µM |  |  |  |  | > 300 µM | 347 µM |  |  |  |  |  |  |  |  |  | EC50 [21]: 0.006 µM; EC50 [22]: ≥ 120 µM |
| CCCCCCCCCCCCCCCCOCCCOP(=O)(O)CO[C@H](CO)Cn1cnc2c(=O)[nH]cnc21 | > 6.8 µM |  | > 6.8 µM | > 6.8 µM | > 6.8 µM | > 34 µM | 15.2 µM | > 34 µM | > 6.8 µM | ≥ 34 µM | 66 µM | inactive | inactive | inactive | inactive | inactive | inactive | inactive | inactive | inactive |  |
| CCCCCCCCCCCCCCCCOCCCOP(=O)(CO[C@H](CO)Cn1cnc2c(=O)[nH]cnc21)OCCCOCCCCCCCCCCCCCCCC | > 23 µM | > 4.6 µM | > 115 µM | > 115 µM | > 115 µM | > 23 µM | > 23 µM | > 115 µM | > 115 µM | ≥ 23 µM | > 115 µM | inactive | inactive | inactive | inactive | inactive | inactive | inactive | inactive | inactive |  |
| CCCCCCCCCCCCCCCCOCCCOP(=O)(CCOCCn1cnc2c(=O)[nH]cnc21)OCCCOCCCCCCCCCCCCCCCC | > 23.4 µM | > 23.4 µM | > 117 µM | > 117 µM | > 117 µM | > 23.4 µM | > 23.4 µM | > 23.4 µM | > 117 µM | ≥ 117 µM | 117 µM | inactive | inactive | inactive | inactive | inactive | inactive | inactive | inactive | inactive |  |
| CCCCCCCCCCCCCCCCOCCCOP1(=O)CO[C@@H](Cn2cnc3c(=O)[nH]cnc32)CO1 (mixture of isomers) | > 1.4 µM | > 1.4 µM | > 7 µM | > 7 µM | > 7 µM | > 7 µM | > 7 µM | > 176 µM | > 7 µM | ≥ 7 µM | > 176 µM | inactive | inactive | inactive | inactive | inactive | inactive | inactive | inactive | inactive |  |
